According to ChEMBL document CHEMBL5465560, “Selectivity Literature for EUbOPEN Chemogenomic Library” (2024):

Tests used:
[1] = molecular target: T1, Serine/threonine-protein kinase PLK4 (Homo sapiens) (UniProt O00444); test: Selectivity interaction (KinomeScan (DiscoverX)) EUB0000655a PLK4; conditions: at 10 µM
T1 sequence (whole entry): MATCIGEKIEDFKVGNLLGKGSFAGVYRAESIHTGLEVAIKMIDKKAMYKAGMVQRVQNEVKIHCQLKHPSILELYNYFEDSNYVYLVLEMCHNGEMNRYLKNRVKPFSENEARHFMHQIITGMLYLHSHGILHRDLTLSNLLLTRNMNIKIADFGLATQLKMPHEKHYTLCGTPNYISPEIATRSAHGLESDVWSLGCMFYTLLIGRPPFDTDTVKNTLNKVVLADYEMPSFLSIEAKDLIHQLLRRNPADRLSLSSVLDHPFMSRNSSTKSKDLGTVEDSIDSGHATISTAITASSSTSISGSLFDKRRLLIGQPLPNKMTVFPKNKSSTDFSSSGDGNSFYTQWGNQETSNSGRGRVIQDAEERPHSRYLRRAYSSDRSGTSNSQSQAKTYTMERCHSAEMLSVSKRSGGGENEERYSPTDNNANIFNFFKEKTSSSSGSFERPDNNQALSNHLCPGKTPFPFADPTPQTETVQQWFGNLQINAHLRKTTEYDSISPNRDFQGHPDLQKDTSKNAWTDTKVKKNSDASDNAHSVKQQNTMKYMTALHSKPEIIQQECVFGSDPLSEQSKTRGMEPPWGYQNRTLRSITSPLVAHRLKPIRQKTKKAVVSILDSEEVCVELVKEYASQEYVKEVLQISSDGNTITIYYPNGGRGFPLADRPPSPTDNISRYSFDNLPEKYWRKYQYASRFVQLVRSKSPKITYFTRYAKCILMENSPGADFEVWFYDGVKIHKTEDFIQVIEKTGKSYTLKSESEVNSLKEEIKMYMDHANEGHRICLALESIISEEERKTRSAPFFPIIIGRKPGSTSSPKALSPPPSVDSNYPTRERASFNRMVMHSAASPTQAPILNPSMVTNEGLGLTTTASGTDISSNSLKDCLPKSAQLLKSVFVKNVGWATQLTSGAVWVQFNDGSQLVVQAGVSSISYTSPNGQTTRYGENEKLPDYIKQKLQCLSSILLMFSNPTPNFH

[2] = molecular target: Tyrosine-protein kinase Fgr (Homo sapiens) (UniProt P09769); test: Selectivity interaction (ProQinase) EUB0000171b FGR
[3] = molecular target: Serine/threonine-protein kinase 26 (Homo sapiens, UniProt Q9P289); test: Selectivity interaction (ProQinase) EUB0000171b STK26
[4] = molecular target: Ribosomal protein S6 kinase alpha-6 (Homo sapiens, UniProt Q9UK32); test: Selectivity interaction (KinomeScan (DiscoverX)) EUB0001079a RPS6KA6; conditions: at 1 µM
[5] = molecular target: Sodium-dependent serotonin transporter (Homo sapiens, UniProt P31645); test: Selectivity interaction (Serotonin transporter site assay, human recombinant ) EUB0000877a SLC6A4
[6] = molecular target: DNA (cytosine-5)-methyltransferase 3B (Homo sapiens) (UniProt Q9UBC3); test: Selectivity interaction (Transferase panel (protein, RNA, and DNA methyltransferases. and EP300 (acetyltransferase))) EUB0000270b DNMT3B
[7] = molecular target: Calcium/calmodulin-dependent protein kinase type 1 (Homo sapiens) (UniProt Q14012); test: Selectivity interaction (Kinase panel (Invitrogen)) EUB0000639a CAMK1; conditions: at 200 nM
[8] = molecular target: Bone morphogenetic protein receptor type-1B (Homo sapiens, UniProt O00238); test: Selectivity interaction (KinomeScan (DiscoverX)) EUB0001049a BMPR1B; conditions: at 1 µM
[9] = molecular target: Interleukin-1 receptor-associated kinase 1 (Homo sapiens) (UniProt P51617); test: Selectivity interaction (KinomeScan (DiscoverX)) EUB0001619a IRAK1; conditions: at 1 µM
[10] = molecular target: Dual specificity mitogen-activated protein kinase kinase 1 (Homo sapiens, UniProt Q02750); test: Selectivity interaction (ActivX KiNativ screen (ex vivo kinase selectivity in human PBMCs)) EUB0001619a MAP2K1; type: cell-based; conditions: PBMC, at 1 µM
Sequence of Dual specificity mitogen-activated protein kinase kinase 1 (Q02750 whole entry): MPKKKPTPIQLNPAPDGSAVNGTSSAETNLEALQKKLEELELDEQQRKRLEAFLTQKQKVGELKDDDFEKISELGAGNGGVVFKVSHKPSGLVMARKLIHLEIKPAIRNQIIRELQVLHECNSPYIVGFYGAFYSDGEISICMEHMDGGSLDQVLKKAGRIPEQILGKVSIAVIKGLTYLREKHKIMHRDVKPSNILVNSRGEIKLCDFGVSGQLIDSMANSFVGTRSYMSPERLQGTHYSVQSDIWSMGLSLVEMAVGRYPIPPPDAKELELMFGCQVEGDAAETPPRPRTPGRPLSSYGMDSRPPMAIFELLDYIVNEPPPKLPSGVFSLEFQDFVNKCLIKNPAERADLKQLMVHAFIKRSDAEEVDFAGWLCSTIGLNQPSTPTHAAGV

Sequence of Tyrosine-protein kinase Fgr (Homo sapiens) (P09769 2-529 limits assumed): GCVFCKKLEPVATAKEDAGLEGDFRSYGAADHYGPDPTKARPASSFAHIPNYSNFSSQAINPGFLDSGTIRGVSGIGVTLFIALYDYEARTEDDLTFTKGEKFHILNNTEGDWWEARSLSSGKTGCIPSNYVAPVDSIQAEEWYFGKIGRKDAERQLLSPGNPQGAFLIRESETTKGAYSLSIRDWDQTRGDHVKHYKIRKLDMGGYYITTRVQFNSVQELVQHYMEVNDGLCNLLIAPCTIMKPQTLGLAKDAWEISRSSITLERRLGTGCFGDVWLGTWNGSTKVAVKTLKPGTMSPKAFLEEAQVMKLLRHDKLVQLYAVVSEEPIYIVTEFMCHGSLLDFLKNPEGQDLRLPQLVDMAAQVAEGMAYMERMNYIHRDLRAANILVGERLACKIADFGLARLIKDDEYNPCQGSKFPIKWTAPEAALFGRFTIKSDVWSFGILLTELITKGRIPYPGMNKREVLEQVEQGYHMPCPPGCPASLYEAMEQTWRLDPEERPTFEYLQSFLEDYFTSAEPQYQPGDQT
Sequence of Serine/threonine-protein kinase 26 (Q9P289 2-416 limits assumed): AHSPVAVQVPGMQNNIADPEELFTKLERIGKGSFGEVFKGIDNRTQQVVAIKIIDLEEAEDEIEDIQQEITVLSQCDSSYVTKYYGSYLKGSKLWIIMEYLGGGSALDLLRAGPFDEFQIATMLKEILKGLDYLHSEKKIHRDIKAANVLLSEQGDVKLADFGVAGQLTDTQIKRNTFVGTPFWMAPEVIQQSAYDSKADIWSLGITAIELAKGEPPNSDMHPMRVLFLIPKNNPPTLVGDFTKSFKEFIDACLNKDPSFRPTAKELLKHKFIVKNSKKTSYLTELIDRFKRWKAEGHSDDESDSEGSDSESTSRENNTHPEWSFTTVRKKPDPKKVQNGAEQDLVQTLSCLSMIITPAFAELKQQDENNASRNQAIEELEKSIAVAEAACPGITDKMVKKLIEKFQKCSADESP
Sequence of Calcium/calmodulin-dependent protein kinase type 1 (Homo sapiens) (Q14012 whole entry, looked up): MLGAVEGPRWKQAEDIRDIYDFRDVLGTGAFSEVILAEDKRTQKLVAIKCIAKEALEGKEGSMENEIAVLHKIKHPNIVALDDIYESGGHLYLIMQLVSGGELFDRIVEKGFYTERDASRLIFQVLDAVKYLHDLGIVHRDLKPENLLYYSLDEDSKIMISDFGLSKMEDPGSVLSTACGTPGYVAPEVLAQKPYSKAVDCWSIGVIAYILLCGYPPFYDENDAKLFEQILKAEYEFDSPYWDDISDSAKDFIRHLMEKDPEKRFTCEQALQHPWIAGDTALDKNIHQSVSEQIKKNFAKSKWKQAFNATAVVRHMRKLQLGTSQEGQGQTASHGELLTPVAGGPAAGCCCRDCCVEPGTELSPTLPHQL
Sequence of Interleukin-1 receptor-associated kinase 1 (Homo sapiens) (P51617 whole entry, looked up): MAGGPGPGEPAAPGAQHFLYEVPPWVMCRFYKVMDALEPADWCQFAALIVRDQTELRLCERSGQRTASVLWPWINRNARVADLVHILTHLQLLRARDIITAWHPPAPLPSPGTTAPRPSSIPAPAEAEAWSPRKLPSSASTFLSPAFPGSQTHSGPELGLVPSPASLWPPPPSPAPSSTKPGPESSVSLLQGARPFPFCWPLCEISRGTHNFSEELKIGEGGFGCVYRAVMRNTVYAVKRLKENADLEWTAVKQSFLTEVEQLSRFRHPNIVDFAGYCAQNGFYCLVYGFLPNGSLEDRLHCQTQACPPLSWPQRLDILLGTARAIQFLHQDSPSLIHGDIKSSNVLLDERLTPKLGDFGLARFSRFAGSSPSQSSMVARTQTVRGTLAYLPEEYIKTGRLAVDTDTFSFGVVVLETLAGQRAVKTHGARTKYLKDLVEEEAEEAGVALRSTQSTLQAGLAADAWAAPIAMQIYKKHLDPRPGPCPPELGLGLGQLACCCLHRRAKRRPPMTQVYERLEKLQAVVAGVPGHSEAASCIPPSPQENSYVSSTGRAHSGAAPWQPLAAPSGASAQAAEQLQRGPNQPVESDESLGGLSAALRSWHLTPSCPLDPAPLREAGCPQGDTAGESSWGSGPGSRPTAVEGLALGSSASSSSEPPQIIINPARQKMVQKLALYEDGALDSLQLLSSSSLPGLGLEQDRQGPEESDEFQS
Sequence of Sodium-dependent serotonin transporter (P31645 whole entry): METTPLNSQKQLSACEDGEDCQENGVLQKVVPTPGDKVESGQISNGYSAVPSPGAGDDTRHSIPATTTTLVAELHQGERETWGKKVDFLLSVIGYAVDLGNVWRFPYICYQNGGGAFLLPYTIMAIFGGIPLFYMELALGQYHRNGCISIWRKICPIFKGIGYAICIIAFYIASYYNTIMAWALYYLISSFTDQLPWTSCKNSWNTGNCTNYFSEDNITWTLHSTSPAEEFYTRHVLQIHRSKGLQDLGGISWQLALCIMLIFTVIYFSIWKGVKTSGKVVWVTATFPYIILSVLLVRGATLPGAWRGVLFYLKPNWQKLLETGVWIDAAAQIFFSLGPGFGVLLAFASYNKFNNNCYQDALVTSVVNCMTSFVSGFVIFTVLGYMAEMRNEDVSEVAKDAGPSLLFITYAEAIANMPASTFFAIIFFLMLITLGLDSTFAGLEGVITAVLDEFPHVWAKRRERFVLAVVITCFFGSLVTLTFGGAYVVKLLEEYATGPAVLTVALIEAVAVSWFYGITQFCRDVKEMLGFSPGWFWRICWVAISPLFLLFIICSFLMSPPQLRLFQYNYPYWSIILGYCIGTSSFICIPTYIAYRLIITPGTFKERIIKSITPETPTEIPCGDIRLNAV
Sequence of Bone morphogenetic protein receptor type-1B (O00238 whole entry): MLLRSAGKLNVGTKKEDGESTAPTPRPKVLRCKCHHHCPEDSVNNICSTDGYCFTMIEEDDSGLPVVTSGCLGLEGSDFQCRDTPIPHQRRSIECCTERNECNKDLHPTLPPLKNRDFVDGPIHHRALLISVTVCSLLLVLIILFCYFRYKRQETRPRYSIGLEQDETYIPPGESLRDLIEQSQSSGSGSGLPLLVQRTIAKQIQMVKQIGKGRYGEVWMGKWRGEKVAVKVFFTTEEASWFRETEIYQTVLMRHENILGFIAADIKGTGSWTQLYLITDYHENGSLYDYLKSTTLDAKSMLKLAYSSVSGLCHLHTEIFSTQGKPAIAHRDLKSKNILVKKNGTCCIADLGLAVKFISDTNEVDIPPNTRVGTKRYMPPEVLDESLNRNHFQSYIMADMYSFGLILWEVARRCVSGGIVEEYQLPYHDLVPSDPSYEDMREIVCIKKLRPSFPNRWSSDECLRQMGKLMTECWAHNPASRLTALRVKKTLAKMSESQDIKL
Sequence of Ribosomal protein S6 kinase alpha-6 (Q9UK32 whole entry): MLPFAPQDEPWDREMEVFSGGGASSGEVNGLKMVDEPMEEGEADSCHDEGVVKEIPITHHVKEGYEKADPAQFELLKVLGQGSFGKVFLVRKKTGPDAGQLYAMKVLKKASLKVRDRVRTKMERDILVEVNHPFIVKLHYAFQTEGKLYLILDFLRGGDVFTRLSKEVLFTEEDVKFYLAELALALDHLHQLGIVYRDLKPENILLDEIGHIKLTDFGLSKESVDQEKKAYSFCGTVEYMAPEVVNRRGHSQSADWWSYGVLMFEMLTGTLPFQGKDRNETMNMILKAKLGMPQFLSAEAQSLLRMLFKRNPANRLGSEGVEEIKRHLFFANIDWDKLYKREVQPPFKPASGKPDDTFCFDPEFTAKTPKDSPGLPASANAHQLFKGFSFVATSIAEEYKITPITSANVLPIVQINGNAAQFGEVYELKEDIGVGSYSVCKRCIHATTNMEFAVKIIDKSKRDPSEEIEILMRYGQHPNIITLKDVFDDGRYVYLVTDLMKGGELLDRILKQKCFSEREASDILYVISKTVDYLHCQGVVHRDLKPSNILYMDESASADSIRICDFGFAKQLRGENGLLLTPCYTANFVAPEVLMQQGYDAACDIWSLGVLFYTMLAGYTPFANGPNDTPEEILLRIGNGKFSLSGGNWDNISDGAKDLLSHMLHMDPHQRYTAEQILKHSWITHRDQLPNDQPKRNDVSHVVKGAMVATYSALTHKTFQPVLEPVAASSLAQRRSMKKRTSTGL

CN(C)CCOc1ccc(-c2nc(-c3ccncc3)c(-c3ccc4c(c3)CC/C4=N\O)[nH]2)cc1
% of control [1]: 83%

C=CC(=O)Nc1cccc(C(=O)Nc2ccc(Nc3cc(-c4[nH]c(SC)nc4C)ccn3)cc2)c1
% of control ([2]; at 1 µM): 87%
% of control ([2]; at 5 µM): 79%
% of control ([3]; at 1 µM): 94%
% of control ([3]; at 5 µM): 97%

Nc1cnc(N2CCc3cc(S(=O)(=O)Nc4c(F)cc(Cl)cc4F)cc(N4CCCC4=O)c32)nc1 [TP-020n]
% of control [4]: 86%

CCC(=O)N1CC[C@H](Nc2ncnc3c2CN(c2cnc(OC)c(C(F)(F)F)c2)CC3)C1 [LENIOLISIB]
IC50 [5]: > 30 µM

Cc1cc(CN)cc(C)c1-c1ncn(C)c1-c1cncn1C
% activity ([6]; at 1 µM): > 90%
% activity ([6]; at 10 µM): > 80%

CC[C@@H]1[C@H](F)C(=O)N[C@@H]1COc1nccc2cc(C(N)=O)c(OC)cc12 [ZIMLOVISERTIB]
% of inhibition [7]: -15.3%

COc1cc(Nc2nc(C)cc(-c3cnn4nc(OC)ccc34)n2)cc(C(F)(F)F)c1
% of control [8]: 81%

N#Cc1cccc(-c2c[nH]c3ncnc(N4CCOCC4)c23)c1
% of control [9]: 23%
% of inhibition [10]: 14%
